One test addresses NQO1 protein (Homo sapiens, UniProt P15559). The experiment in a line: NQO1 activity measurement (cytochrome C reduction). Particulars: 5 ng NQO1 protein, 200 μM NADH, 77 μM cytochrome C, 37° C., absorbance 550 nm for 10 minutes. The format is biochemical.
A further test deals with Cells. The test is described as follows: Measurement of lactate change amount within cells. The format is cell-based. Particulars: PCA extract of cells, lactate measured from supernatant (Megazyme, K-LATE). As to the method: Cells were treated with 400 μl of 6% PCA, and then collected and extracted. Centrifugation (13,000 rpm, 10 min) was performed. A precipitate was dried using a Speed-Vac and then a weight of dried precipitate was measured. A supernatant was neutralized using 400 μl of 1 M KOH and a final volume thereof was adjusted to 1 ml using 0.33 M KH2PO4/K2HPO4, pH 7.5. Centrifugation (13,000 rpm, 10 min) was performed and the amount of lactate was measured from a supernatant (Megazyme, K-LATE).

In a further test the test system is C57BL/6J Lep ob/ob mice. The experiment in a line: Weight loss effects in obese mice (ob/ob). The format is in vivo. Particulars: vs 0.1% SLS controls. As to the method: 10 week-old C57BL/6J Lep ob/ob mice having genetic obesity characteristics available from ORIENTBIO were prepared. Two mice were raised in each polycarbonate breeding cage (200 W×260 L×130H (mm), Three-shine) in which temperature was 20 to 24° C., relative humidity was 35 to 65%, illuminance was 150 to 300 lux, night and day were 12 hours, and exhaust was performed at 10 to 15 air changes per hour. As a feed, low fat diet (11.9 kcal % fat, 5053, Labdiet) manufactured by ORIENTBIO was used. The feed was contained in a feeder and free intake was allowed. As drinking water, water, which was contained in a 250 mL polycarbonate based bottle, purified through a filter and a sterilizer was used and free intake was allowed.
The compound according to Example 1 synthesized in the present invention was orally administered to three C57BL/6J Lep ob/ob mice in amounts of 40 mg/kg, 80 mg/kg, and 120 mg/kg, respectively, once every day for two weeks. For administration, a disposable syringe fitted with a sonde for oral administration was used and 10 ml/kg of the compound was orally administered into the stomach. As controls, three C57BL/6J Lep ob/ob mice were administered 0.1% sodium lauryl sulfate (SLS) in an amount of 120 mg/kg in the same manner as described above. After administration, a time-dependent weight increase ratio, weight change, and intake amount were measured and results are illustrated in FIG. 1 below.
Weights of the experimental animals were measured immediately before administration of a test material and seven times a week from an administration initiation day to a test termination day. Increased total weights were calculated by subtracting weights measured on an experiment initiation day from weights measured one day before an experiment termination day. Food intake amounts were calculated by measuring feed supply amounts and remaining amounts twice a week from an initiation day of test material administration to a test termination day for each individual. […]
(§1) Experiments were performed under the same conditions as in Experimental Example 3-1 except that 15 week-old C57BL/6J Lep ob/ob mice having genetic obesity characteristics available from ORIENTBIO were prepared, the compounds according to Examples 5 and 6 were administered to three C57BL/6J Lep ob/ob mice in an amount of 150 mg/kg, 150 mg/kg of 0.1% SLS was administered to each of three C57BL/6J Lep ob/ob mice as controls, and experiments were performed for a total of one week. Weight increase ratios, weight change, and intake amounts depending on administration time were measured and results are illustrated in FIG. 5 below.
as §1, with “that 10” for “that 15”, “Examples 8, 9,” for “Examples 5”, “and 12” for “and 6”, “FIG. 6” for “FIG. 5”
Experiments were performed under the same conditions as in Experimental Example 3-1 except that 6 week-old C57BL/6J Lep ob/ob mice having genetic obesity characteristics available from ORIENTBIO were prepared, the compounds according to Examples 17, 18, 22, and 23 were administered to three C57BL/6J Lep ob/ob mice in an amount of 100 mg/kg, 100 mg/kg of 0.1% SLS was administered to each of three C57BL/6J Lep ob/ob mice as controls, and experiments were performed for a total of one week. Weight increase ratios, weight change, and intake amounts depending on administration time were measured and results are illustrated in FIG. 10 below. […]

[1] abbreviates: Exp. Ex. 3-7, FIG. 10: 6 week-old ob/ob mice, 100 mg/kg oral, one week.
Where [2] appears, read: Exp. Ex. 3-6, FIG. 6: 10 week-old ob/ob mice, 150 mg/kg oral, one week.
The mark [3] stands for this setting: Exp. Ex. 3-11, FIG. 14: 6.5 week-old ob/ob mice, 100 mg/kg oral, one week.
The mark [4] stands for this setting: Exp. Ex. 3-5, FIG. 5: 15 week-old ob/ob mice, 150 mg/kg oral, one week.
Where [5] appears, read: Exp. Ex. 3-8, FIG. 11: 10 week-old ob/ob mice, 150 mg/kg oral, five days.
The mark [6] stands for this setting: Exp. Ex. 3-10, FIG. 13: 6 week-old ob/ob mice, 100 mg/kg oral, two weeks.
[7] abbreviates: Exp. Ex. 3-12, FIG. 15: 6 week-old ob/ob mice, 100 mg/kg oral, two weeks.

We go through ten compounds from patent US10766882B2, “1,2-naphthoquinone based derivative and method of preparing the same” (YUNGJIN PHARM. CO., LTD., priority 2013, dated 2020).

Chain of NQO1 protein (P15559 whole entry, species assumed): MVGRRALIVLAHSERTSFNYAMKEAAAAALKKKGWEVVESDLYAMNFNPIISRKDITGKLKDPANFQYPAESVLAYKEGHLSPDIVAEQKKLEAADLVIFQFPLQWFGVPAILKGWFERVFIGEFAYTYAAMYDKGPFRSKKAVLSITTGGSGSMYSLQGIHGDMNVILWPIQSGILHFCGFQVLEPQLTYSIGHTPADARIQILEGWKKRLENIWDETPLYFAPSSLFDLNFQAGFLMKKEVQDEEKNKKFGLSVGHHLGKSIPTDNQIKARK

For the compound `CC(C)c1nc2c([nH]1)C(=O)C(=O)c1cc(N(C)C)ccc1-2` [Example 23], the “NQO1 activity (5 μM, [nmol cytochrome C reduced/min/μg protein])” value on NQO1 protein is reported as 78.4 nmol cytochrome C reduced/min/μg protein. Besides, the “Lactate change amount within cells (nmol/mg cell)” value (shortened to “Lactate change amount within cells”) with Cells came to 5.6 nmol/mg cell. Besides, in the test with C57BL/6J Lep ob/ob mice (setting [1]), the intake amount entry is given as “significantly decreased in some sections”, the weight change result is “significantly decreased in some sections” and the weight increase ratio entry was “significantly decreased in some sections”.
Take `CCc1nc2c([nH]1)C(=O)C(=O)c1ccccc1-2` [Example 9]: the “NQO1 activity (5 μM, [nmol cytochrome C reduced/min/μg protein])” value at NQO1 protein is on record as 172 nmol cytochrome C reduced/min/μg protein. Besides, the “Lactate change amount within cells” value with Cells is 8.0 nmol/mg cell. Moreover, in the test with C57BL/6J Lep ob/ob mice (setting [2]), the intake amount entry is “significantly decreased”, the weight change result is given as “significantly decreased” and the weight increase ratio entry is on record as “significantly decreased”.
Turning to `CC(C)c1nc2c([nH]1)C(=O)C(=O)c1cc(N)ccc1-2` [Example 18], the “NQO1 activity (5 μM, [nmol cytochrome C reduced/min/μg protein])” value at NQO1 protein was 177.5 nmol cytochrome C reduced/min/μg protein. The “Lactate change amount within cells” value in the test with Cells was 6.6 nmol/mg cell. In the test on C57BL/6J Lep ob/ob mice (setting [1]), the intake amount result is reported as “significantly decreased in some sections”, the weight change result is on record as “significantly decreased in some sections” and the weight increase ratio result is given as “significantly decreased in some sections”.
On to `CCc1nc2c(n1C)C(=O)C(=O)c1ccccc1-2` [Example 38, 2-ethyl-3-methyl-3H-naphtho[2,1-d]imidazole-4,5-dione], for which the “NQO1 activity (5 μM, [nmol cytochrome C reduced/min/μg protein])” value at NQO1 protein is 142.1 nmol cytochrome C reduced/min/μg protein. Also, in the test with Cells, the “Lactate change amount within cells” value was 5.2 nmol/mg cell. Further, in the test with C57BL/6J Lep ob/ob mice (setting [3]), the intake amount entry is on record as “significantly decreased in some sections”, the weight change entry is listed as “significantly decreased in some sections” and the weight increase ratio result was “significantly decreased in some sections”.
On to `CC(C)c1nc2c([nH]1)C(=O)C(=O)c1cc(F)ccc1-2` [Example 22], for which the “NQO1 activity (5 μM, [nmol cytochrome C reduced/min/μg protein])” value at NQO1 protein is listed as 206.1 nmol cytochrome C reduced/min/μg protein. Further, the “Lactate change amount within cells” value in the test with Cells is given as 7.3 nmol/mg cell. In the test on C57BL/6J Lep ob/ob mice (setting [1]), the intake amount result is recorded as “significantly decreased in some sections”, the weight change entry is “significantly decreased in some sections” and the weight increase ratio result was “significantly decreased in some sections”.
On to `O=C1C(=O)c2[nH]c(C3CCCCC3)nc2-c2ccccc21` [Example 6, 2-cyclohexyl-3H-naphtho[2,1-d]imidazole-4,5-dione], for which, on NQO1 protein, the “NQO1 activity (5 μM, [nmol cytochrome C reduced/min/μg protein])” value is 253 nmol cytochrome C reduced/min/μg protein. Further, in the test on Cells, the “Lactate change amount within cells” value is 4.6 nmol/mg cell. Further, in the test on C57BL/6J Lep ob/ob mice (setting [4]), the intake amount result was “significantly decreased”, the weight change entry is given as “significantly decreased” and the weight increase ratio entry is “significantly decreased”.
For the compound `Cc1nc2c(n1C)C(=O)C(=O)c1ccccc1-2` [Example 96], the “NQO1 activity (5 μM, [nmol cytochrome C reduced/min/μg protein])” value at NQO1 protein is reported as 21.4 nmol cytochrome C reduced/min/μg protein. Moreover, in the test with Cells, the “Lactate change amount within cells” value was 5.7 nmol/mg cell. For the same compound, in the test with C57BL/6J Lep ob/ob mice (setting [3]), the intake amount entry is reported as “significantly decreased in some sections”, the weight change entry is recorded as “significantly decreased in some sections” and the weight increase ratio result is given as “significantly decreased in some sections”.
`CC(C)c1nc2c([nH]1)C(=O)C(=O)c1cc(Cl)ccc1-2` [Example 17]: the “NQO1 activity (5 μM, [nmol cytochrome C reduced/min/μg protein])” value at NQO1 protein is listed as 206.9 nmol cytochrome C reduced/min/μg protein. Moreover, in the test with Cells, the “Lactate change amount within cells” value turned out to be 6.0 nmol/mg cell. Also, in the test with C57BL/6J Lep ob/ob mice (setting [1]), the intake amount entry is “significantly decreased in some sections”, the weight change entry is “significantly decreased in some sections” and the weight increase ratio entry is recorded as “significantly decreased in some sections”.
For the compound `CCc1nc2c([nH]1)C(=O)C(=O)c1cc(F)ccc1-2` [Example 26], the “NQO1 activity (5 μM, [nmol cytochrome C reduced/min/μg protein])” value on NQO1 protein was 223.5 nmol cytochrome C reduced/min/μg protein. For the same compound, the “Lactate change amount within cells” value in the test with Cells was 5.7 nmol/mg cell. In addition, in the test on C57BL/6J Lep ob/ob mice (setting [5]), the intake amount result was “significantly decreased in some sections”, the weight change entry is given as “significantly decreased in some sections” and the weight increase ratio entry was “significantly decreased in some sections”.
`CC(C)c1nc2c(n1C)C(=O)C(=O)c1ccccc1-2` [Example 35]: on NQO1 protein, the “NQO1 activity (5 μM, [nmol cytochrome C reduced/min/μg protein])” value was 190.3 nmol cytochrome C reduced/min/μg protein. Besides, the “Lactate change amount within cells” value in the test on Cells is reported as 8.1 nmol/mg cell. In addition, in the test with C57BL/6J Lep ob/ob mice (setting [6]), the intake amount entry was “significantly decreased in some sections”, the weight change entry is listed as “significantly decreased in some sections” and the weight increase ratio result was “significantly decreased in some sections”. In the test on C57BL/6J Lep ob/ob mice (setting [7]), the intake amount entry is “significantly decreased in some sections”, the weight change entry was “significantly decreased in some sections” and the weight increase ratio result was “significantly decreased in some sections”.
